Test results from the supplement of paper PMC5908809.

What was measured:
SNK-6 (IL-2 2.5 ng/mL) [1] = assay: drug sensitivity score (DSS) (DSS units); higher = more sensitive; extreme values may be limits of the assay; conditions: 72 h
KAI3 (IL-2 2.5 ng/mL) [2] = assay: as above; conditions: 72 h
NK-92 (IL-2 2.5 ng/mL) [3] = assay: as above; conditions: 72 h
[4] = system: normal primary NK cells, pool 1 (3 donors), resting (IL-2 0 ng/mL); assay: as above; conditions: 72 h
NKL (IL-2 2.5 ng/mL) [5] = assay: as above; conditions: 72 h
DERL-7 (IL-2 2.5 ng/mL) [6] = assay: as above; conditions: 72 h
IMC-1 (IL-2 20 ng/mL) [7] = assay: as above; conditions: 72 h
YT (IL-2 2.5 ng/mL) [8] = assay: as above; conditions: 72 h
[9] = system: normal primary NK cells, pool 1 (3 donors) (IL-2 2.5 ng/mL); assay: as above; conditions: 72 h
KHYG-1 (IL-2 2.5 ng/mL) [10] = assay: as above; conditions: 72 h
NK-YS (IL-2 2.5 ng/mL) [11] = assay: as above; conditions: 72 h
[12] = system: normal primary NK cells, pool 2 (3 donors) (IL-2 2.5 ng/mL); assay: as above; conditions: 72 h
[13] = system: normal primary NK cells, pool 3 (3 donors) (IL-2 2.5 ng/mL); assay: as above; conditions: 72 h
[14] = system: normal NK cells expanded with K562-aAPC; assay: as above; conditions: 72 h; IL-2 2.5 ng/mL
Method: (§1)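 Drug sensitivity and resistance testing on K562-aAPC-expanded normal NK cells: 5 concentrations (10-fold steps over a 10,000-fold range), 72 h at 37 °C, viability by CellTiter-Glo normalised to DMSO and benzethonium chloride controls; DSS from the fitted curve.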

[15] = system: normal NK cells expanded with K562-aAPC; assay: percent inhibition of viability; higher = more inhibition; conditions: 72 h, IL-2 2.5 ng/mL
Method: as §1

SNK-6 (IL-2 2.5 ng/mL) [16] = assay: as above; conditions: 72 h
KAI3 (IL-2 2.5 ng/mL) [17] = assay: as above; conditions: 72 h
NK-92 (IL-2 2.5 ng/mL) [18] = assay: as above; conditions: 72 h
[19] = system: normal primary NK cells, pool 1 (3 donors), resting (IL-2 0 ng/mL); assay: as above; conditions: 72 h
NKL (IL-2 2.5 ng/mL) [20] = assay: as above; conditions: 72 h
DERL-7 (IL-2 2.5 ng/mL) [21] = assay: as above; conditions: 72 h
IMC-1 (IL-2 20 ng/mL) [22] = assay: as above; conditions: 72 h
YT (IL-2 2.5 ng/mL) [23] = assay: as above; conditions: 72 h
[24] = system: normal primary NK cells, pool 1 (3 donors) (IL-2 2.5 ng/mL); assay: as above; conditions: 72 h
KHYG-1 (IL-2 2.5 ng/mL) [25] = assay: as above; conditions: 72 h
NK-YS (IL-2 2.5 ng/mL) [26] = assay: as above; conditions: 72 h
[27] = system: normal primary NK cells, pool 2 (3 donors) (IL-2 2.5 ng/mL); assay: as above; conditions: 72 h
[28] = system: normal primary NK cells, pool 3 (3 donors) (IL-2 2.5 ng/mL); assay: as above; conditions: 72 h

CC(=O)Nc1cccc(-n2c(=O)n(C3CC3)c(=O)c3c(Nc4ccc(I)cc4F)n(C)c(=O)c(C)c32)c1 [Trametinib] (max concentration tested 250 nM)
Conditions	drug sensitivity score
DERL-7 (IL-2 2.5 ng/mL) [6]	10.2
IMC-1 (IL-2 20 ng/mL) [7]	0.89
KAI3 (IL-2 2.5 ng/mL) [2]	4.13
KHYG-1 (IL-2 2.5 ng/mL) [10]	10.7
NK-92 (IL-2 2.5 ng/mL) [3]	0.89
NK-YS (IL-2 2.5 ng/mL) [11]	1.13
NKL (IL-2 2.5 ng/mL) [5]	15.5
SNK-6 (IL-2 2.5 ng/mL) [1]	0
YT (IL-2 2.5 ng/mL) [8]	0
[4]	0
[9]	1.13
[12]	0
[13]	0.89
[14]	0

percent inhibition of viability [%]
Conditions	0.025 nM	0.25 nM	2.5 nM	25 nM	250 nM
DERL-7 (IL-2 2.5 ng/mL) [21]	1.02	7.15	24.3	38.5	49.2
IMC-1 (IL-2 20 ng/mL) [22]	-7.84	-6.23	-12.6	-5.74	-11.9
KAI3 (IL-2 2.5 ng/mL) [17]	-0.65	10.4	14.7	17.6	21.2
KHYG-1 (IL-2 2.5 ng/mL) [25]	-1.89	-0.88	17.2	47.1	54.2
NK-92 (IL-2 2.5 ng/mL) [18]	-8.96	-8.36	-15.1	-31.2	-2.14
NK-YS (IL-2 2.5 ng/mL) [26]	-3.76	0.79	3.16	13.2	9.03
NKL (IL-2 2.5 ng/mL) [20]	-13.6	-3.27	31.2	60.9	62.5
SNK-6 (IL-2 2.5 ng/mL) [16]	8.07	2.1	-22.8	-18.2	-19.1
YT (IL-2 2.5 ng/mL) [23]	-2.64	-1.54	0.86	2.64	-0.71
[15]	-1.03	-2.71	-0.52	-0.63	1.09
[19]	-7.3	-4.37	3.53	-1.6	4.62
[24]	-8.95	-7.23	10.8	8.62	17.9
[27]	-4.75	-6.13	-1.09	4.26	-5.37
[28]	-14.5	-14.1	-12	-11.3	-11.4

Nc1nccc(-c2c(-c3ccc(F)cc3)ncn2C2CCCCC2)n1 (max concentration tested 10000 nM)
Conditions	drug sensitivity score
DERL-7 (IL-2 2.5 ng/mL) [6]	2.07
IMC-1 (IL-2 20 ng/mL) [7]	0
KAI3 (IL-2 2.5 ng/mL) [2]	25.2
KHYG-1 (IL-2 2.5 ng/mL) [10]	1.98
NK-92 (IL-2 2.5 ng/mL) [3]	6.29
NK-YS (IL-2 2.5 ng/mL) [11]	4.44
NKL (IL-2 2.5 ng/mL) [5]	0
SNK-6 (IL-2 2.5 ng/mL) [1]	4.81
YT (IL-2 2.5 ng/mL) [8]	3.49
[4]	2.37
[9]	3.09
[12]	4.42
[13]	1.17
[14]	0.68

percent inhibition of viability [%]
Conditions	1 nM	10 nM	100 nM	1000 nM	10000 nM
DERL-7 (IL-2 2.5 ng/mL) [21]	-3.56	-1.12	-1.49	5.28	29
IMC-1 (IL-2 20 ng/mL) [22]	0.25	1.14	3.57	3.69	3.74
KAI3 (IL-2 2.5 ng/mL) [17]	3.53	23.9	60.5	90.9	66.9
KHYG-1 (IL-2 2.5 ng/mL) [25]	4.98	-0.44	4.5	3.42	31.7
NK-92 (IL-2 2.5 ng/mL) [18]	4.97	-2.54	18.6	23.2	49.9
NK-YS (IL-2 2.5 ng/mL) [26]	-3.68	-2.41	3.69	14.9	47.6
NKL (IL-2 2.5 ng/mL) [20]	-2.84	0.96	7.22	-3.94	-2.33
SNK-6 (IL-2 2.5 ng/mL) [16]	-26.2	-7.24	-4.71	7.8	64.1
YT (IL-2 2.5 ng/mL) [23]	4.57	3.69	9.54	15.5	35.5
[15]	-4.54	-4.14	0.36	-0.71	21.9
[19]	-19.6	-29.4	3.3	5.1	33.2
[24]	-3.43	-7.84	9.95	16.4	17.9
[27]	-8.96	-5.75	14	14.7	21.2
[28]	-7.45	-3.42	2.49	11.6	17

CCCS(=O)(=O)Nc1ccc(F)c(C(=O)c2c[nH]c3ncc(-c4ccc(Cl)cc4)cc23)c1F [Vemurafenib] (max concentration tested 10000 nM)
Conditions	drug sensitivity score
DERL-7 (IL-2 2.5 ng/mL) [6]	6.92
IMC-1 (IL-2 20 ng/mL) [7]	1.59
KAI3 (IL-2 2.5 ng/mL) [2]	6.2
KHYG-1 (IL-2 2.5 ng/mL) [10]	11.1
NK-92 (IL-2 2.5 ng/mL) [3]	8.16
NK-YS (IL-2 2.5 ng/mL) [11]	4.38
NKL (IL-2 2.5 ng/mL) [5]	6.06
SNK-6 (IL-2 2.5 ng/mL) [1]	5.17
YT (IL-2 2.5 ng/mL) [8]	8.15
[4]	4.54
[9]	0
[12]	0
[13]	0
[14]	0

percent inhibition of viability [%]
Conditions	1 nM	10 nM	100 nM	1000 nM	10000 nM
DERL-7 (IL-2 2.5 ng/mL) [21]	3.23	0.38	4.34	15.4	79.5
IMC-1 (IL-2 20 ng/mL) [22]	-6.37	-7.47	-1.05	-3.36	37.8
KAI3 (IL-2 2.5 ng/mL) [17]	-2.25	-4.57	-1.04	12.3	75.2
KHYG-1 (IL-2 2.5 ng/mL) [25]	1.21	-7.43	3.43	42.5	105
NK-92 (IL-2 2.5 ng/mL) [18]	-0.79	1.62	12	22.6	89.5
NK-YS (IL-2 2.5 ng/mL) [26]	-2.8	-10.1	-3.62	0.91	77.1
NKL (IL-2 2.5 ng/mL) [20]	-13.6	-17.7	-12.3	12.2	73.1
SNK-6 (IL-2 2.5 ng/mL) [16]	-12.9	-2.01	-17	-0.04	92.6
YT (IL-2 2.5 ng/mL) [23]	1.23	-1.61	4.12	16.2	98.7
[15]	-5.54	-6.29	-9.37	-4.54	5.8
[19]	3.45	-3.02	6.61	23.4	23.8
[24]	-3.98	-7.14	1.09	0.31	-3.81
[27]	-1.54	-1.23	6.03	0.86	9.89
[28]	0.76	-2.71	6.1	0.26	0.17
